The results in this text go back to PubChem BioAssay (NCI).

Values joined by “and” are separate entries in the source; they are usually repeats but may differ in a detail not shown here. Equal values may be shown once.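 Grown in 96-well plates, cells were treated for 48 hours with each compound at five concentrations. Insufficient inhibition: endpoint recorded as highest concentration tested. GI50 marks 50% less growth. The concentration for full growth arrest is given as TGI.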 Bounds are passed on as bounds.

What all share (experiment): NCI-60 cell line screen, 48 h
Test [1] deals with A549 NSCLC.
Test [2] relates to HOP-92 NSCLC.
The subject of test [3] is KM12 colon.
In test [4] the test system is M14 melanoma.
The subject of test [5] is NCI-H23 lung.
Test [6] has as its system SK-MEL-2 melanoma.
In test [7] the test system is SK-MEL-5 melanoma.
Test [8] deals with TK-10 renal.
Test [9] relates to UACC-62 melanoma.
Test [10] relates to UO-31 renal.
For test [11], the system named is EKVX NSCLC.
Test [12] concerns LOX IMVI melanoma.
The test system of test [13] is BT-549 breast.
Test [14] has as its system DU-145 prostate.
The test system of test [15] is MCF7 breast.
Test [16] has as its system NCI/ADR-RES ovarian.

`O=C(c1ccccc1)c1c(CC(O)c2ccccn2)n(C(=O)c2ccccc2)c2ccccc12` (stereo unspecified): the TGI in [1] is greater than 100 µM; in test [2] it was 57.5 µM; in test [3], greater than 100 µM; in test [4], 38.1 µM; in test [5], 56.3 µM; in [6] it was 30.9 µM. Further, the TGI was 27.3 µM in [7], greater than 100 µM in test [8], 32.5 µM in test [9] and 67.5 µM in test [10].
In the case of `COc1ccc(C2=C(Cl)c3cc(OC)c(OC)cc3C2OC)cc1OC` (stereo unspecified), the TGI in [1], in [11], in test [2], in [3], in test [12] and in test [4] was greater than 100 µM each time. Also, the TGI in test [5], in test [6], in test [7], in test [8], in [9] and in test [10] was greater than 100 µM throughout.
Consider `S=c1[nH]nc(CNc2ccc(-c3n[nH]c(=S)n3-c3ccc(Cl)cc3)cc2)n1-c1ccc(Cl)cc1`, for which the TGI in test [1] was greater than 100 µM; in test [13] it was greater than 100 µM; in test [14], 71.1 µM; in test [11] it was greater than 100 µM; in test [2] it was 59.1 µM; in test [3], 44 µM. Further, the TGI is 68.1 µM in test [4]; greater than 100 µM in [15]; greater than 100 µM in test [5]; greater than 100 µM in test [16]; 57.7 µM in test [6]; 65 µM in test [7]. The TGI in [8] was greater than 100 µM; in test [9], 78.8 µM; in test [10], 32.4 µM.
As to `Cc1ccc(S(=O)(=O)NC(=O)NCCc2cnc[nH]2)cc1`, the TGI in test [1], in [14], in test [11], in test [2], in test [3] and in test [12] was greater than 100 µM in each case. Further, the TGI in [4], in test [15], in test [5], in test [16], in test [6] and in test [7] was greater than 100 µM each time. Further, the TGI in test [8], in test [9] and in test [10] was greater than 100 µM in each case.
As to `CCN(CC)C(=O)Cc1c(C(=O)N(CC)CC)c(=O)nc2sccn12`, the TGI in test [1], in test [11], in test [2], in test [3], in test [12] and in test [4] was greater than 100 µM in each case. For the same molecule, the TGI in test [5], in [6], in [8], in [9] and in [10] was greater than 100 µM throughout.
On to `CCN(CC)c1cccc2c1/C(=N/O)CCCC2`, for which the TGI in test [1], in [11], in test [3], in [12], in test [5] and in test [6] was greater than 100 µM in each case. Further, the TGI in [7], in test [8], in test [9] and in [10] was greater than 100 µM in each case.
For the molecule `CC(=O)Nc1ccc(NCC(=O)Nn2cnc3ccc(S(=O)(=O)Nc4ccc(NC(C)=O)cc4)cc3c2=O)cc1`, the TGI in test [1], in [13], in test [14], in test [11], in test [2] and in [3] was greater than 100 µM throughout. In addition, the TGI in test [12], in [4], in [15], in test [5], in [16] and in test [6] was greater than 100 µM in each case. Besides, the TGI in test [8], in test [9] and in test [10] was greater than 100 µM throughout.
As to `CC(C)=CCC[C@]1(C)C=Cc2c(O)c3c(c(CC=C(C)C)c2O1)O[C@]12C(=C[C@@H]4CC1C(C)(C)O[C@@]2(C/C=C(/C)C(=O)O)C4=O)C3=O`, the TGI in [1] was 3.71 µM; in [13], 7.03 µM; in test [11] it was 4.39 µM; in test [2] it was 9.16 µM; in [3], 2.25 µM; in test [12], 4.95 µM. For the same molecule, the TGI was 3.19 µM in test [4]; 1.42 µM in test [15]; 3.24 µM in test [5]; 6.96 µM in [16]; 4.13 µM in [6]; 2.47 µM in test [8]. Also, the TGI came to 4.57 µM in test [9] and 3.73 µM in test [10].
For the molecule `C=CCn1c(-c2ccc([N+](=O)[O-])cc2)cs/c1=N\C(P(=O)(O)O)P(=O)(O)O`, the TGI in [1], in test [13], in test [14], in test [11], in test [2] and in test [3] was greater than 100 µM throughout. Besides, the TGI in [12], in test [4], in [15], in test [5], in [16] and in [7] was greater than 100 µM throughout. In addition, the TGI in [8], in test [9] and in test [10] was greater than 100 µM in each case.
In the case of `N#Cc1cc(C#N)c(N)nc1N`, the TGI in [1], in test [13], in test [14], in test [11], in [2] and in test [3] was greater than 100 µM each time. Further, the TGI in test [12], in test [4], in test [15], in test [5], in [16] and in test [6] was greater than 100 µM each time. The TGI in test [7], in test [8], in test [9] and in test [10] was greater than 100 µM in each case.
On to `COC(=O)C1CCc2c1c(=O)n1c([nH]c3ccccc31)c2C#N` (stereo unspecified), for which the TGI in [1], in test [11], in [2], in test [3], in [12] and in [4] was greater than 100 µM throughout. Further, the TGI in test [5], in test [6], in [7], in [8], in [9] and in test [10] was greater than 100 µM in each case.
As for `CC(C)OP(=O)(OC(C)C)/C(Cl)=N/Nc1ccc([N+](=O)[O-])cc1`, the TGI in [1], in test [11], in [2], in test [3], in [12] and in [4] was greater than 100 µM throughout. Also, the TGI in test [5], in test [6], in test [7], in test [8], in test [9] and in [10] was greater than 100 µM each time.
On to `Cc1ccn2c(=O)cc(CN3CCOCC3)nc2c1`, for which the TGI in test [1], in test [13], in test [14], in [11], in test [2] and in [3] was greater than 100 µM in each case. Further, the TGI in test [12], in [4], in test [15], in [5], in test [16] and in test [6] was greater than 100 µM in each case. In addition, the TGI in test [8], in [9] and in test [10] was greater than 100 µM in each case.
As to `Nc1nc2c3nc(Nc4ccccc4)sc3nc(=S)n2c2sc(Nc3ccccc3)nc12`, the TGI in [1] is greater than 100 µM; in test [11], greater than 100 µM; in test [2], 52.3 µM; in [4] it was greater than 100 µM; in [5], greater than 100 µM; in [7], greater than 100 µM. Moreover, the TGI in test [9] and in test [10] was greater than 100 µM each time.
Consider `COP(=O)(OC)C(=O)N1N(c2ccc([N+](=O)[O-])cc2)C(=O)C(C)NC1(NNc1ccc([N+](=O)[O-])cc1)P(=O)(OC)OC` (stereo unspecified), for which the TGI in test [1], in test [11], in test [2], in test [3], in [12] and in test [4] was greater than 100 µM throughout. Moreover, the TGI in [5], in test [6], in [7], in test [8], in test [9] and in [10] was greater than 100 µM throughout.
As for `CC(=O)O[C@H]1C(=O)[C@@]2(C)[C@H]([C@H](OC(=O)c3cccc([N+](=O)[O-])c3)[C@]3(O)C[C@H](OC(=O)[C@H](O)[C@@H](NC(=O)c4ccccc4)c4ccccc4)C(C)=C1C3(C)C)[C@]1(OC(C)=O)CO[C@@H]1C[C@@H]2O`, the TGI in [1], in test [13], in test [14], in test [11], in test [2] and in [3] was greater than 25 µM throughout. Also, the TGI in test [12] was greater than 25 µM; in [4], 8.52 µM; in test [15], greater than 17.1 µM; in [16] it was greater than 25 µM; in [6] it was greater than 25 µM; in test [7], greater than 9.01 µM. The values for the TGI in [8], in test [9] and in test [10] were greater than 21.8 µM, greater than 25 µM and greater than 25 µM, respectively.
On to `CC(Nc1ncc2c(n1)-c1ccccc1OC2)C(=O)O` (stereo unspecified), for which the TGI in test [1], in test [14], in test [11], in [2], in test [3] and in test [12] was greater than 100 µM each time. Moreover, the TGI in test [4], in test [15], in test [5], in [16], in test [6] and in test [7] was greater than 100 µM throughout. Also, the TGI in test [8], in test [9] and in [10] was greater than 100 µM each time.
For the molecule `O=[N+]([O-])c1cccc2nc3ccccc3c(NCCCn3ccnc3[N+](=O)[O-])c12`, the figures for the GI50 in [11], in test [16] and in [6] were 76.4 µM, 0.0125 µM and 0.022 µM, respectively. Also, the TGI is 0.13 µM and 0.0216 µM in [12]; 0.000256 µM in test [4]; 0.00146 µM in test [15]; 0.023 µM in test [5]; 0.495 µM and 0.348 µM in test [16]; 0.0489 µM and 0.0392 µM in test [8]. For the same molecule, the TGI is 0.0187 µM in test [9]; 0.00595 µM and 0.038 µM in test [10].
Regarding `COC(=O)CC(NC(=O)OCc1ccccc1)C(C(C)=O)C(=O)OCc1ccccc1` (stereo unspecified), the TGI in [1] was greater than 31.6 µM; in test [11], greater than 31.6 µM; in test [2] it was greater than 31.6 µM; in test [3] it was greater than 31.6 µM; in test [12] it was greater than 100 µM; in test [4] it was greater than 31.6 µM. The TGI in [5], in [7], in test [8], in [9] and in test [10] was greater than 31.6 µM throughout.
For `NC(Cc1ccc(OCc2ccccc2)cn1)C(=O)O` (stereo unspecified), the TGI in test [1], in test [13], in test [14], in [11], in test [3] and in [12] was greater than 100 µM each time. Moreover, the TGI in test [15], in [5], in [16], in test [7], in [8] and in [10] was greater than 100 µM each time.
